According to patent US10328128B2, “Treatment of infection by human enterovirus D68” (priority 2014, dated 2019):
Like-named read-outs stand apart in the source and are kept apart here.

B1: DAS181: fusion protein of the catalytic domain of A. viscosus sialidase and a human amphiregulin GAG-binding anchoring domain (SEQ ID NOs: 15 and 16) (protein)
chain: MGDHPQATPAPAPDASTELPASMSQAQHLAANTATDNYRIPAITTAPNGDLLISYDERPKDNGNGGSDAPNPNHIVQRRSTDGGKTWSAPTYIHQGTETGKKVGYSDPSYVVDHQTGTIFNFHVKSYDQGWGGSRGGTDPENRGIIQAEVSTSTDNGWTWTHRTITADITKDKPWTARFAASGQGIQIQHGPHAGRLVQQYTIRTAGGAVQAVSVYSDDHGKTWQAGTPIGTGMDENKVVELSDGSLMLNSRASDGSGFRKVAHSTDGGQTWSEPVSDKNLPDSVDNAQIIRAFPNAAPDDPRAKVLLLSHSPNPRPWSRDRGTISMSCDDGASWTTSKVFHEPFVGYTTIAVQSDGSIGLLSEDAHNGADYGGIWYRNFTMNWLGEQCGQKPAKRKKKGGKNGKNRRNRKKKNPGDHPQATPAPAPDASTELPASMSQAQHLAANTATDNYRIPAITTAPNGDLLISYDERPKDNGNGGSDAPNPNHIVQRRSTDGGKTWSAPTYIHQGTETGKKVGYSDPSYVVDHQTGTIFNFHVKSYDQGWGGSRGGTDPENRGIIQAEVSTSTDNGWTWTHRTITADITKDKPWTARFAASGQGIQIQHGPHAGRLVQQYTIRTAGGAVQAVSVYSDDHGKTWQAGTPIGTGMDENKVVELSDGSLMLNSRASDGSGFRKVAHSTDGGQTWSEPVSDKNLPDSVDNAQIIRAFPNAAPDDPRAKVLLLSHSPNPRPWSRDRGTISMSCDDGASWTTSKVFHEPFVGYTTIAVQSDGSIGLLSEDAHNGADYGGIWYRNFTMNWLGEQCGQKPAKRKKKGGKNGKNRRNRKKKNP

Assays:
[1] = typical fluoxetine dosing; cited from earlier work
four EV-D68 strains = assay: microbe, parasite or virus in culture; format: cell-based, Human enterovirus D68; conditions: for activity against EV-D68 strains in words: highest concentration tested 10 μM; for EC50: read-out: EC50 values, range over all four EV-D68 strains
[2] = tested on: EV-D68 strain USA-MO/18947; assay: CPE inhibition assay in RD cells; format: cell-based, Human enterovirus D68; conditions: read-out: Mean EC50 ± SD
[3] = tested on: EV-D68 1962 prototype strain (Fermon); assay: CPE inhibition assay in RD cells; format: cell-based, Human enterovirus D68; conditions: read-out: Mean EC50 ± SD
[4] = tested on: EV-D68 strain USA-MO/18949; assay: CPE inhibition assay in RD cells; format: cell-based, Human enterovirus D68; conditions: read-out: Mean EC50 ± SD
[5] = tested on: EV-D68 strain USA-IL/18956; assay: CPE inhibition assay in RD cells; format: cell-based, Human enterovirus D68; conditions: read-out: Mean EC50 ± SD
EV-D68 Fermon strain = assay: CPE inhibition assay over a range of virus doses; format: cell-based, Human enterovirus D68; conditions: Enterovirus D, EVD68; Fermon strain, 100-fold virus dose range, five half-log dilutions; upper end printed as >10 μM; data not shown; read-out: EC50 values over a range of virus doses
Procedure: Antiviral activity was assessed in a homogeneous cell-based assay that measured inhibition of viral cytopathic effect in human rhabdomyosarcoma cells (RD; ATCC CCL-136). The viruses included three representative EV-D68 strains from the 2014 outbreak (USA-MO/18947, USA-MO/18949, USA-IL/18956) (Brown et al. 2014. Seven Strains of Enterovirus D68 Detected in the United States during the 2014 Severe Respiratory Disease Outbreak. Genome Announc 2:e01201-01214), as well as the 1962 prototype strain (Fermon) (Schieble et al. 1967. A probable new human picornavirus associated with respiratory diseases. Am J Epidemiol 85:297-310). For the CPE inhibition assay, half-log10 dilutions of drug compound (10 μM to 0.001 μM) were combined with 100 CCID50 (50% cell culture infectious dose) of virus and added to monolayers of RD cells (5000 cells per well) in 384-well, white, flat-bottom microplates. Plates were incubated at 33° C. and 5% CO2 for five days, and cell viability was assessed using ATPLite® (Perkin Elmer, Waltham, Mass.) by adding 15 μL of cell lysis buffer and then 15 μL of substrate solution, following the manufacturer's recommendations.
In both studies, the methods were somewhat different from our approach. […] For the other compounds tested, similar EC50 values were observed across this same dose range. […]

[6] = Sialidase activity with fluorogenic substrate 4-MU-NANA; format: biochemical; conditions: 37° C.
Procedure: The sialidase activity of DAS181 was measured using the fluorogenic substrate 4-methylumbelliferyl-N-acetyl-α-D-neuraminic acid (4-MU-NANA; Sigma). One unit of sialidase is defined as the amount of enzyme that releases 10 nmol of MU from 4-MU-NANA in 10 minutes at 37° C. (50 mM CH3COOH—NaOH buffer, pH 5.5) in a reaction that contains 20 nmol of 4-MU-NANA in a 0.2 ml volume (Potier et al., Anal. Biochem., 94:287-296, 1979). The specific activity of DAS181 was determined to be 1,300 U/mg protein (0.77 μg DAS181 protein per unit of activity).

[7] = tested on: enterovirus D68 strains (EV-D68); assay: DAS181 specific anti-viral assay, text summary over all strains and conditions; format: cell-based, Human enterovirus D68; conditions: all conditions and all enterovirus strains tested
Procedure: (§1) As shown in the Table 2, DAS181 was tested to assess antiviral activity of the compound using a cell-based assay, and using enterovirus D68 strains (EV-D68). In this assay, using four specific EV-D68 strains, the compound was added at different time-points to each of the strains. The three time conditions tested were: (i) DAS181 preincubated with cells for 24 h before virus infection; (ii) DAS181 added simultaneously with virus; and (iii) DAS181 added 4 h post-infection. Fermon, an original prototypic strain, was used as control.

[8] = tested on: EV-D68 strain USA-IL/238139; assay: DAS181 specific anti-viral assay, time of addition; format: cell-based, Human enterovirus D68; conditions: read-out: DAS181 Mean EC50 ± SD
Procedure: as §1

[9] = tested on: EV-D68 strain USA-MO/238121; assay: DAS181 specific anti-viral assay, time of addition; format: cell-based, Human enterovirus D68; conditions: read-out: DAS181 Mean EC50 ± SD
Procedure: as §1

EV-D68 strain Fermon = assay: DAS181 specific anti-viral assay, time of addition; format: cell-based, Human enterovirus D68; conditions: read-out: DAS181 Mean EC50 ± SD
Procedure: as §1

[10] = tested on: EV-D68 strain USA-MO/238102; assay: DAS181 specific anti-viral assay, time of addition; format: cell-based, Human enterovirus D68; conditions: read-out: DAS181 Mean EC50 ± SD
Procedure: as §1

[11] = RD cells, 100 CCID50 virus, 33° C., five days, strain USA-MO/18947
[12] = RD cells, 100 CCID50 virus, 33° C., five days, strain Fermon
[13] = RD cells, 100 CCID50 virus, 33° C., five days, strain USA-MO/18949
[14] = RD cells, 100 CCID50 virus, 33° C., five days, strain USA-IL/18956
[15] = Enterovirus D, EVD68, RD, 120 h
[16] = Enterovirus D, EVD68, 120 h, RD cells, 100 CCID50 virus, 33° C., five days, strain USA-MO/18947
[17] = Enterovirus D, EVD68, 120 h, RD cells, 100 CCID50 virus, 33° C., five days, strain Fermon
[18] = Enterovirus D, EVD68, 120 h, RD cells, 100 CCID50 virus, 33° C., five days, strain USA-MO/18949
[19] = Enterovirus D, EVD68, 120 h, RD cells, 100 CCID50 virus, 33° C., five days, strain USA-IL/18956
[20] = 24 hr preincubation before infection
[21] = Drug addition 4 hr after infection
[22] = No preincubation (added simultaneously with virus)

Row | Molecule | EC50 [2, 15] | EC50 [3, 15] | EC50 [4, 15] | EC50 [5, 15] | EC50 [2, 16] | EC50 [3, 17] | EC50 [4, 18] | EC50 [5, 19] | also measured
1 | CNCCC(Oc1ccc(C(F)(F)F)cc1)c1ccccc1 (centres unmarked) [Fluoxetine, fluoxetine] | – | – | – | – | – | – | – | – | maximal plasma levels [1]: < 200 nM; activity against EV-D68 strains in words (four EV-D68 strains; RD cells): significant activity
2 | COc1ccc(OCc2ccc(COc3c(Cl)cccc3Cl)cc2)c(Cl)c1 [Pocapavir, pocapavir] | – | – | – | – | – | – | – | – | EC50 [2, 11]: > 10000 nM; EC50 [3, 12]: > 10000 nM; EC50 [4, 13]: > 10000 nM; activity against EV-D68 strains in words (four EV-D68 strains; RD cells): inactive; EC50 [5, 14]: > 10000 nM
3 | NC12CC3CC(CC(C3)C1)C2 [Amantidine] | > 10000 nM | > 10000 nM | > 10000 nM | > 10000 nM | – | – | – | – | –
4 | CC(=O)Oc1ccccc1C(=O)Nc1ncc([N+](=O)[O-])s1 [Nitazoxanide, nitazoxanide] | – | – | – | – | > 10000 nM | > 10000 nM | > 10000 nM | > 10000 nM | –
5 | OC(c1cc(C(F)(F)F)nc2c(C(F)(F)F)cccc12)C1CCCCN1 (centres unmarked) [Mefloquine, mefloquine] | – | – | – | – | > 10000 nM | > 10000 nM | > 10000 nM | > 10000 nM | –
6 | NC(=O)c1nc(F)c[nH]c1=O [Favipiravir, favipiravir] | – | – | – | – | > 10000 nM | > 10000 nM | > 10000 nM | > 10000 nM | –
7 | COc1ccc(CC(C)NCC(O)c2ccc(O)c(NC=O)c2)cc1 (centres unmarked) [Formoterol furmarate] | > 10000 nM | > 10000 nM | > 10000 nM | > 10000 nM | – | – | – | – | –
8 | CCOC(=O)/C=C/[C@H](C[C@@H]1CCNC1=O)NC(=O)[C@@H](CC(=O)[C@@H](NC(=O)c1cc(C)on1)C(C)C)Cc1ccc(F)cc1 [Rupintrivir, rupintrivir] | 4.6 ± 1.6 nM | 2 ± 0.5 nM | 1.5 ± 3 nM | 3.7 ± 7 nM | – | – | – | – | EC50 (four EV-D68 strains; Enterovirus D, EVD68, RD): 1.5 to 5.1 nM
9 | CCC(C)n1ncn(-c2ccc(N3CCN(c4ccc(OCC5COC(Cn6cncn6)(c6ccc(Cl)cc6Cl)O5)cc4)CC3)cc2)c1=O (centres unmarked) [Itraconazole, itraconazole] | – | – | – | – | > 10000 nM | > 10000 nM | > 10000 nM | > 10000 nM | EC50 (EV-D68 Fermon strain): 290 to 10000 nM; activity against EV-D68 strains in words (four EV-D68 strains; RD cells): failed to inhibit
10 | CCOC(=O)c1c(CSc2ccccc2)n(C)c2cc(Br)c(O)c(CN(C)C)c12 [Arbidol] | > 10000 nM | > 10000 nM | > 10000 nM | > 10000 nM | – | – | – | – | –
11 | C#CC[C@@H](C(=O)N[C@H](/C=C/C(=O)OCC)C[C@@H]1CCNC1=O)n1cccc(NC(=O)c2cc(C)on2)c1=O [V-7404] | – | – | – | – | 26 ± 4 nM | 3.5 ± 0.6 nM | 27 ± 8 nM | 24 ± 7 nM | EC50 (four EV-D68 strains; Enterovirus D, EVD68, RD): 1.5 to 5.1 nM
12 | CCOC(=O)C1=C[C@@H](OC(CC)CC)[C@H](NC(C)=O)[C@@H](N)C1 [Oseltamivir] | > 10000 nM | > 10000 nM | > 10000 nM | > 10000 nM | – | – | – | – | –
13 | B1 | – | – | – | – | – | – | – | – | DAS181 protein per unit of activity ([6]; pH 5.5): 0.77 µg; specific activity ([6]; pH 5.5, one unit releases 10 nmol MU in 10 minutes): 1,300 U/mg protein; EC50 [2, 11]: 3.6 ± 1.5 nM; EC50 [3, 12]: 1.2 ± 0.9 nM; EC50 [4, 13]: 2.6 ± 1.2 nM; EC50 (four EV-D68 strains; RD cells, all four EV-D68 strains): 1.2 to 4 nM; EC50 [5, 14]: 4 ± 1.6 nM; potency in words [7]: low micromolar potency; EC50 [8, 20]: 3.2 ± 1 nM; EC50 [8, 21]: 4 ± 1.2 nM; EC50 [8, 22]: 4 ± 1.6 nM; EC50 [9, 20]: 2.7 ± 0.4 nM; EC50 [9, 21]: 3.4 ± 1 nM; EC50 [9, 22]: 2.6 ± 1.2 nM; EC50 (EV-D68 strain Fermon; [20]): 1 ± 0.1 nM; EC50 (EV-D68 strain Fermon; [21]): 3.6 ± 1.5 nM; EC50 (EV-D68 strain Fermon; [22]): 1.2 ± 0.9 nM; EC50 [10, 20]: 2 ± 0.1 nM; EC50 [10, 21]: 4.3 ± 0.4 nM; EC50 [10, 22]: 3.6 ± 1.5 nM
